The numbers were not newly measured in patent US20120142546A1, “HYPOMETHYLATED GENES IN CANCER” (THE JOHNS HOPKINS UNIVERSITY, priority 2007, published 2012), which cites them from elsewhere.

This data set deals with cancers involving the lung, esophagus, or pleura.

In the case of `Nc1ncn([C@H]2C[C@H](O)[C@@H](CO)O2)c(=O)n1` [5-aza-2′-deoxycytidine], the “NY-ESO-1 and MAGEA3 expression in treated patients” value was “upregulated in a proportion of patients”.
